Patent publication US20230227406A1, “MODULATORS OF E3 LIGASES” (Rekindle Therapeutics Inc., priority 2020, published 2023)

Key:
[1] = target: T1, WWP1 (Homo sapiens, UniProt Q9H0M0); assay: WWP1 MALDI-MS ubiquitin depletion assay (auto-ubiquitination); type: biochemical; conditions: 30 min pre-incubation, 90 minutes at 37° C.
T1 construct: purchased Ubiquigent 63-0034-025/30033/D
Method: Modulators designed in these ways were tested for HECT domain E3 ligase activity in a MALDI TOF assay of auto-ubiquitination (De Cesare et al, Cell Chem. Biol, 2018, 25, 1117)
UBE1 (E-305 Boston Biochem), UBE2D1 (E2-616 Boston Biochem), WWP1 (Ubiquigent #63-0034-025/30033/D), ubiquitin variants (Boston Biochem; ubiquitin: U-100H; WT-His6-Ub: U-530; K27R-His6-Ub:UM-HK27R; K27O-His6-Ub: UM-HK27O), alpha-cyano-4-hydroxycinnamic acid (CHCA), ATP, trifluoroacetic acid (Millipore Sigma, St. Louis, Mo.), 384-well round-bottom polypropylene microplates (781280, Greiner, Stonehouse, UK), 384-well Anchorchip MALDI targets and Peptide Calibration Standard II (Bruker Daltonics, Billerica, Mass.).
Protocol: The WWP1 ubiquitin depletion assay consists of recombinant UBE1 (5 nM), UBE2D1 conjugating enzyme (60 nM) and WWP1 ligase (50 nM) in a 10 mM HEPES pH 8.0 containing 0.1 mg/mL BSA, 10 mM MgCl2, 1 mM ATP and 1500 nM ubiquitin. Screening was performed by dispensing 3.5 μL of an enzyme solution containing UBE1 (10 nM), UBE2D1 (120 nM), WWP1 (100 nM), ubiquitin ([…]) to a 384-well round bottom polypropylene plates followed by incubation at 37° C. for 30 min. Reactions were initiated by the addition of 3.5 μL of an ATP solution (2000 nM) then incubated at 37° C. for 90 minutes before being quenched by the addition of 5 μL of a 50 mM EDTA solution containing 750 nM of a ubiquitin labelled with a histidine expression tag (m/z=9460.0 Da).
For detection of ubiquitin and the ubiquitin-6His internal standards, 50 nL of quenched reaction was dispensed onto a 384-well Anchorchip MALDI target plate (Bruker) pre-coated with a uniform layer of CHCA crystals immediately followed by 200 nL of a 3 mg/mL CHCA matrix solution (6 mg of CHCA dissolved in 0.7 mL of 100% ethanol and 1.3 mL of 0.31% aqueous TFA) using a TTP Labtech Mosquito liquid handler. Spectra for all reactions were acquired on a Bruker AutoFlex II in positive linear TOF mode from 1000 laser shots with ion suppression below 4000 Da. Spectra were analyzed for response using a centroid peak-fitting algorithm to quantify ubiquitin (m/z=8564.0 Da) and ubiquitin-6His (m/z=9460.0 Da) followed taking the ratio of intensities of ubiquitin and the ubiquitin-6His internal standard.
For compound screening, 140 nL of diluted compound in 100% DMSO was added to the WWP1 enzyme solution and pre-incubated for 30 minutes prior to reaction initiation.

[2] = tested on: phosphorylated AKT and phosphorylated Ribosomal Protein S6; assay: Western blot of AKT and S6 phosphorylation in Hs578T cells; type: cell-based, human; conditions: 48 hours, indicated concentrations
Method: Hs578T cells (human triple negative breast cancer) were treated with the indicated concentration of COMPOUND 1 for 48 hours prior to harvesting. The “0” concentration is DMSO only (0.5%, same as was used for compound doses). […] Analysis occurred via western blot using the indicated antibodies. Quantification by densitometry of the bands from the western blot are presented for phosphorylated AKT/Total AKT and phosphorylated Ribosomal Protein S6/Total Ribosomal Protein S6. COMPOUND 1 reduced both AKT and S6 phosphorylation relative to their respective total protein levels.
(§1) The data presented here are consistent with the previous replicate in Hs578T cells, and the observation is preserved in another TNBC cell line, BT-20. COMPOUND 1 reduces the phospho-AKT/vinculin loading control and phospho-S6/total S6 ratios. Methods are the same as the previous replicate, using the indicated doses.
Hs578T cells (human triple negative breast cancer) were treated with the indicated concentration of COMPOUND 6 for 48 hours prior to harvesting. The “0” concentration is DMSO only (0.5%, same as was used for compound doses). […] Analysis occurred via western blot using the indicated antibodies.
The data presented here are consistent with the previous replicate in Hs578T cells. COMPOUND 6 reduces the phospho-AKT/vinculin loading control and phospho-S6/total S6 ratios. Methods are the same as the previous replicate, using the indicated doses.
Hs578T cells (human triple negative breast cancer) were treated with the indicated concentration of COMPOUND 7 for 48 hours before harvesting. The “0” concentration is DMSO only (0.5%, same as was used for compound doses). […] Analysis occurred via western blot using the indicated antibodies.
The data presented here are consistent with the previous replicate in Hs578T cells. COMPOUND 7 reduces the phospho-S6/vinculin loading control ratio. Methods are the same as the previous replicate, using the indicated doses.
(§2) Hs578T cells (human triple negative breast cancer) were treated with the indicated concentration of COMPOUND 8 for 48 hours and then harvested. The “0” concentration is DMSO only (0.5%, same as was used for compound doses). […] Analysis occurred via western blot using the indicated antibodies.

[3] = tested on: DU-145 cells; assay: Cellular proliferation assay (MTS) in DU-145 cells; type: cell-based; conditions: Homo sapiens, 72 hours of incubation, read-out: IC50 values for selected compounds in DU-145 cells
Method: DU-145 cells were trypsinized, counted via Trypan blue method and resuspended in DMEM complete medium (10% FBS with Pen-strep antibiotics) as described in Lieu et al, Mol Cel Endorinol, 87:19-28, 1992. Cells were seeded at a density of 100 cells per well in 1001 volume of 96-well cell culture plate and were incubated overnight at 37° C. in 5% CO2 incubator. The next day, cells were given fresh media and the test compounds were added in different concentrations. After 72 hours of incubation, MTS reagent (procured from Promega) was added to the cells and they were incubated for an additional 2 hours. Finally, the plates read in the absorbance mode at 490 nm using an ELISA plate reader (Perkin Elmer Victor X3 plate reader). The % growth values were calculated as [(T−T0)/(C−T0)]×100, where T0 is the OD of cells at the time of compound addition, C is the vehicle control, T is the OD of the test concentrations at 72 hours. Percentage inhibition values were calculated using 100−([(T−T0)/(C−T0)]×100). IC50 values were calculated in graph pad prism software using dose response curve nonlinear regression method.

[4] = tested on: PD-L1; assay: Western blot of PD-L1 in Hs578T cells; type: cell-based, human; conditions: 48 hours, indicated concentrations of compound
Method: Hs578T cells (human triple negative breast cancer) were treated with the indicated concentration of COMPOUND 1 for 48 hours prior to harvesting. The “0” concentration is DMSO only (0.5%, same as was used for compound doses). […] Analysis occurred via western blot using the indicated antibodies. Quantification by densitometry of the bands from the western blot are presented for PD-L1/Vinculin (loading control) in the absence of interferon gamma, and glycosylated/non-glycosylated PD-L1 in the presence of interferon gamma.
as §1, with “increases PD-L1 levels and” for “reduces”, “glycosylated PD-L1/non-glycosylated PD-L1 ratio.” for “phospho-AKT/vinculin loading control and phospho-S6/total S6 ratios.”
Hs578T cells (human triple negative breast cancer) were treated with the indicated concentration of COMPOUND 6 for 48 hours before harvesting. The “0” concentration is DMSO only (0.5%, same as was used for compound doses). […] Analysis occurred via western blot using the indicated antibodies. PD-L1 protein levels were reduced relative to the vinculin loading control upon compound treatment. This effect is observed in the presence and absence of interferon gamma (IFN, 25 ng/mL in cell culture media during the drug treatment).
Hs578T cells (human triple negative breast cancer) were treated with the indicated concentration of COMPOUND 7 for 48 hours prior to harvesting. The “0” concentration is DMSO only (0.5%, same as was used for compound doses). […] Analysis occurred via western blot using the indicated antibodies. PD-L1 protein levels were reduced relative to the vinculin loading control upon 319-02 treatment.
The data presented here are consistent with the previous replicate in Hs578T cells. COMPOUND 7 reduces the PD-L1/vinculin loading control ratio. Methods are the same as the previous replicate, using the indicated doses.
as §2
PD-L1-APC (BD Biosciences) and a matched isotype control were used to visualize PD-L1 cell surface expression by flow cytometry (1:250 dilution). As shown by western blot, the knockdown of WWP1 yielded increased PD-L1 protein levels, including an increase in the glycosylated band.
Total RNA was isolated using an RNeasy kit from Qiagen.

[5] = tested on: SARS-CoV-2; type: cell-based; conditions: Vero cells, 36 hours
[6] = tested on: WWP1 mRNA; assay: qPCR of WWP1 mRNA in Du145 shRNA cell lines; conditions: vs empty vector control lines
[7] = tested on: WWP1; assay: Western blot of WWP1 protein levels after siRNA, shRNA, ASO or interferon gamma; conditions: A549 and Hs578T cells, 25 ng/mL, 48 hours
[8] = tested on: PD-L1; assay: Western blot of PD-L1 in multiple cancer cell lines after siRNA, shRNA or interferon gamma; type: cell-based, human; conditions: 25 ng/mL, 48 hours
Excerpt: Relative to the vinculin loading control, interferon gamma upregulates PD-L1 protein levels within TNBCs shown to express PD-L1 at baseline.
Analysis occurred via western blot using the indicated antibodies.

T1 sequence (Q9H0M0 whole entry): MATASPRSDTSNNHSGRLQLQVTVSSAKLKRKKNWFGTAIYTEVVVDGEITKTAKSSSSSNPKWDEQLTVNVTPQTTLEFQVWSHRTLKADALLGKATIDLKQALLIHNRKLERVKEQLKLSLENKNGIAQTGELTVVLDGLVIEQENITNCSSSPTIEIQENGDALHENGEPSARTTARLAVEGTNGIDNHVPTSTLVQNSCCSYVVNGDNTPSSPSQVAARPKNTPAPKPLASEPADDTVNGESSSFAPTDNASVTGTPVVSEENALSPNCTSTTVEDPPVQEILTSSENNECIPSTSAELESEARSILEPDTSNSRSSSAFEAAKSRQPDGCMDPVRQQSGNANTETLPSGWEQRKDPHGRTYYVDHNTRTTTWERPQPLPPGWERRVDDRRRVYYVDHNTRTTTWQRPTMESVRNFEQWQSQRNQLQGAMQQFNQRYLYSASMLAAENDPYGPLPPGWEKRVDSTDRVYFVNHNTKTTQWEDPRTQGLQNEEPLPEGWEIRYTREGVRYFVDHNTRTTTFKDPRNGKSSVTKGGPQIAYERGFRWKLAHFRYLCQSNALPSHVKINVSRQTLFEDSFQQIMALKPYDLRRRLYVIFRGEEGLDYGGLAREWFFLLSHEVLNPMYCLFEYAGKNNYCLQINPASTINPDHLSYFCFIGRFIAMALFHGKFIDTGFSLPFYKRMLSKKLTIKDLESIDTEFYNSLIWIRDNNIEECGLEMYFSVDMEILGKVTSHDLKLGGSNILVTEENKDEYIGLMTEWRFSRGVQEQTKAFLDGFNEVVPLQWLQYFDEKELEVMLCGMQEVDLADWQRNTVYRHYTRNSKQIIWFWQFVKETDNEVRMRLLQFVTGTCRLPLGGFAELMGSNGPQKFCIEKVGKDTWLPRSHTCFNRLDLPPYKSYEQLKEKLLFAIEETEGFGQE

Compound | IC50 [1] [µM] | IC50 [3] [µM] | further results
OCc1c[nH]c2ccccc12 [Compound I3C, Indole-3-carbinol] |  |  | impact on SARS-CoV-2 infection ([5]; 2.5 μM): little impact on infection; inhibition of SARS-CoV-2 infection ([5]; 5 μM): > 75%
O=C(O)c1ccc2[nH]cc(Cc3c[nH]c4ccccc34)c2c1 [Compound 3, 3-((1H-indol-3-yl)methyl)-1H-indole-5-carboxylic acid] | ~300 |  | 
interferon gamma: interferon gamma, a stimulator of PD-L1 expression |  |  | KD (reduction) of WWP1 mRNA by qPCR [6]: 15%; WWP1 levels [7]: reduced; induced PD-L1 expression ([8]; MCF-7 cells (ER+)): not readily observable; PD-L1 protein levels relative to vinculin ([8]; TNBCs (Hs578T, BT-20)): upregulates
Fc1ccc2[nH]cc(Cc3c[nH]c4ccc(F)cc34)c2c1 [Compound 9, bis(5-fluoro-1H-indol-3-yl)methane] | 66 |  | 
N#Cc1cc(NC(=O)c2ccc3c(c2)c(C=O)cn3-c2ccccc2)ccn1 [Compound 2, N-(2-cyanopyridin-4-yl)-3-formyl-1-phenyl-1H-indole-5-carboxamide] | 26 |  | 

The next lines start with results.

IC50 [1] [µM] | IC50 [3] [µM] | Compound | further results
49 | 12 | Fc1cccc2[nH]cc(Cc3c[nH]c4cccc(F)c34)c12 [Compound 8, bis(4-fluoro-1H-indol-3-yl)methane] | S6 phosphorylation (relative to total S6 or vinculin loading control) [2]: reduced; PD-L1 levels (relative to vinculin loading control) [4]: reduced
45 | 5.48 | C#CCNC(=O)c1ccc2c(Cc3c[nH]c4ccccc34)c(C)[nH]c2c1 [Compound 5, 3-((1H-indol-3-yl)methyl)-2-methyl-N-(prop-2-yn-1-yl)-1H-indole-6-carboxamide] | 
29 | 0.08 | O=C(O)c1ccc2c(Cc3c[nH]c4ccccc34)c[nH]c2c1 [Compound 4, 3-((1H-indol-3-yl)methyl)-1H-indole-6-carboxylic acid] | 
